The nature of series [1]: GC retention time (DB-5MS, GC-APCI); higher = later elution. The method, then: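 Standards of hydrophobic organic contaminants were analysed by GC-APCI (positive mode, dry or wet source conditions) coupled to cyclic ion mobility-QTOF MS. CCS was measured for the base ion (sometimes a fragment ion) in N2 drift gas (one-pass mode, calibrated with a Waters 22-compound mix). 5 mL/min).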

Series [2] is described as follows: collision cross section (N2, base ion); higher = larger ion cross section. The gist of the method: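 Standards of hydrophobic organic contaminants were separated on an Agilent 8890 GC fitted with a DB-5MS UI column and ionized in positive mode by atmospheric pressure chemical ionization under dry or wet conditions. Detection was on a Waters cyclic ion mobility time-of-flight mass spectrometer in high-definition MSE mode, with one-pass mobility separation in N2 drift gas calibrated against a calibrant mix. Collision cross section values refer to the base ion, which was in some cases a fragment, and were obtained after lockmass correction and peak picking in Progenesis QI.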

Molecules are shown by their SMILES.

`CCCCCCOP(=O)(OCCCCCC)OCCCCCC` [Trihexyl phosphate] (APCI source condition: Wet, base ion: [M+H]+) showed a GC retention time in series [1] of 19.4 min. The compound further returned a collision cross section in series [2] of 201 Å².
On the same counts, the results for `O=P(Oc1ccccc1)(Oc1ccccc1)Oc1ccccc1` [Triphenylphosphate] (APCI source condition: Wet, base ion: [M+H]+) are 21.1 min and 168.91 Å².
`O=P(OC(CCl)CCl)(OC(CCl)CCl)OC(CCl)CCl` [Tris(1,3-dichloropropan-2-yl) phosphate] (APCI source condition: Wet, base ion: [M+H]+): in series [1], the GC retention time came to 20.4 min. The collision cross section in series [2] was determined as 175.08 Å².
With `CC(CCl)OP(=O)(OC(C)CCl)OC(C)CCl` (centres undefined) [Tris(1-chloro-2-propyl)phosphate] (APCI source condition: Wet, base ion: [M-C3H4Cl]+), the GC retention time in series [1] is 15.4 min. The compound further yielded a collision cross section in series [2] of 160.76 Å².
The like results for `CCCCOCCOP(=O)(OCCOCCCC)OCCOCCCC` [Tris(2-butoxyethyl) phosphate] (APCI source condition: Wet, base ion: [M+H]+) were, in that order, 21.1 min and 198.91 Å².
On the same counts, the results for `O=P(OCCCl)(OCCCl)OCCCl` [Tris(2-chloroethyl) phosphate] (APCI source condition: Wet, base ion: [M+H]+) are 15.1 min and 145.65 Å².
The like results for `CCCCC(CC)COP(=O)(OCC(CC)CCCC)OCC(CC)CCCC` (centres undefined) [Tris(2-ethylhexyl) phosphate] (APCI source condition: Wet, base ion: [M+H]+) were, in that order, 21.5 min and 221.61 Å².
In series [1], `O=S1OC[C@@H]2[C@H](CO1)[C@@]1(Cl)C(Cl)=C(Cl)[C@]2(Cl)C1(Cl)Cl` (stereo partly drawn) [α-Endosulfan] (APCI source condition: Wet, base ion: [M+H]+) showed a GC retention time of 18.9 min. In series [2], the collision cross section amounted to 163.16 Å².
The like results for `ClC1C(Cl)C(Cl)C(Cl)C(Cl)C1Cl` (stereo not drawn) [α-Hexachlorocyclohexane] (APCI source condition: Dry, base ion: [M-H2Cl3]+) were, in that order, 14.5 min and 137.25 Å².
The like results for `O=S1OC[C@@H]2[C@H](CO1)[C@]1(Cl)C(Cl)=C(Cl)[C@]2(Cl)C1(Cl)Cl` (stereo partly drawn) [β-Endosulfan] (APCI source condition: Wet, base ion: [M+H]+) were, in that order, 20 min and 162.35 Å².
For `Cl[C@H]1[C@H](Cl)[C@@H](Cl)[C@H](Cl)[C@@H](Cl)[C@@H]1Cl` [β-Hexachlorocyclohexane] (APCI source condition: Dry, base ion: [M-H2Cl3]+), the GC retention time in series [1] was 15.1 min. Moreover, in series [2], the collision cross section was 138.19 Å².
`ClC1C(Cl)C(Cl)C(Cl)C(Cl)C1Cl` (centres undefined) [γ-Hexachlorocyclohexane] (APCI source condition: Dry, base ion: [M-H2Cl3]+): the GC retention time in series [1] was 15.2 min. For the same compound, the collision cross section in series [2] worked out at 137.38 Å².

The values above are taken from the supplement of paper PMC11923942.
